PubChem BioAssay (NCI)
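How tested: cells in 96-well plates exposed to compound for 48 hours at five concentrations. At the TGI there is no net growth.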

Assays:
Test in all cases: growth of human tumour cells (NCI), 48 h
[1] = test system: SNB-19 CNS
[2] = test system: MCF7 breast
[3] = test system: SK-MEL-2 melanoma
[4] = test system: MALME-3M melanoma
[5] = test system: HOP-92 NSCLC
[6] = test system: M14 melanoma
[7] = test system: HT29 colon
[8] = test system: NCI-H226 lung
[9] = test system: BT-549 breast
[10] = test system: CCRF-CEM leukemia
[11] = test system: A549 NSCLC
[12] = test system: MDA-MB-231 breast
[13] = test system: MDA-MB-435
[14] = test system: UO-31 renal
[15] = test system: LOX IMVI melanoma
[16] = test system: MOLT-4 leukemia
[17] = test system: SF-268 CNS
[18] = test system: HCT-116 colon
[19] = test system: MDA-N
[20] = test system: SR leukemia
[21] = test system: HL-60(TB) leukemia
[22] = test system: 786-0 renal
[23] = test system: NCI-H460 lung
[24] = test system: SK-OV-3 ovarian
[25] = test system: SNB-75 CNS
[26] = test system: U251 CNS
[27] = test system: DU-145 prostate
[28] = test system: NCI-H522 lung
[29] = test system: COLO 205 colon
[30] = test system: HS 578T breast
[31] = test system: TK-10 renal
[32] = test system: SK-MEL-28 melanoma
[33] = test system: T-47D breast
[34] = test system: SW-620 colon
[35] = test system: HOP-62 NSCLC
[36] = test system: HCT-15 colon
[37] = test system: CAKI-1 renal
[38] = test system: PC-3 prostate
[39] = test system: ACHN renal
[40] = test system: SK-MEL-5 melanoma
[41] = test system: NCI/ADR-RES ovarian
[42] = test system: SF-295 CNS
[43] = test system: OVCAR-4 ovarian
[44] = test system: NCI-H23 lung
[45] = test system: SF-539 CNS
[46] = test system: OVCAR-3 ovarian
[47] = test system: UACC-62 melanoma
[48] = test system: EKVX NSCLC
[49] = test system: KM12 colon
[50] = test system: K-562 leukemia
[51] = test system: SN12C renal
[52] = test system: UACC-257 melanoma
[53] = test system: HCC-2998 colon
[54] = test system: OVCAR-5 ovarian
[55] = test system: A498 renal
[56] = test system: OVCAR-8 ovarian
[57] = test system: RPMI-8226 leukemia
[58] = test system: RXF 393 renal
[59] = test system: IGROV1 ovarian

`O=C(COc1ccccc1)N(C(=O)N1CCN(c2ccccc2)CC1)S(=O)(=O)c1ccccc1` was tested, and the TGI [1] was > 100 µM, the TGI [2] was > 100 µM and the TGI [3] was > 100 µM. For the same compound, the TGI [4] was > 100 µM, the TGI [5] was > 100 µM and the TGI [6] was > 100 µM. The TGI [7] was > 100 µM, the TGI [8] was > 100 µM and the TGI [9] was > 100 µM. The TGI [10] was 61.2 µM, the TGI [11] was > 100 µM and the TGI [12] was > 100 µM. For the same compound, the TGI [13] was > 100 µM, the TGI [14] was > 100 µM and the TGI [15] was > 100 µM. For the same compound, the TGI [16] was 61.9 µM, the TGI [17] was > 100 µM and the TGI [18] was > 100 µM. For the same compound, the TGI [19] was > 100 µM, the TGI [20] was 45.4 µM and the TGI [21] was > 100 µM. For the same compound, the TGI [22] was > 100 µM, the TGI [23] was > 100 µM and the TGI [24] was > 100 µM. For the same compound, the TGI [25] was 96 µM, the TGI [26] was > 100 µM and the TGI [27] was > 100 µM. The TGI [28] was > 100 µM, the TGI [29] was > 100 µM and the TGI [30] was > 100 µM. The TGI [31] was > 100 µM, the TGI [32] was > 100 µM and the TGI [33] was 87.6 µM. For the same compound, the TGI [34] was > 100 µM, the TGI [35] was > 100 µM and the TGI [36] was > 100 µM. For the same compound, the TGI [37] was > 100 µM, the TGI [38] was > 100 µM and the TGI [39] was > 100 µM. For the same compound, the TGI [40] was > 100 µM, the TGI [41] was > 100 µM and the TGI [42] was > 100 µM. For the same compound, the TGI [43] was > 100 µM, the TGI [44] was > 100 µM and the TGI [45] was > 100 µM. The TGI [46] was > 100 µM, the TGI [47] was > 100 µM and the TGI [48] was > 100 µM. For the same compound, the TGI [49] was > 100 µM, the TGI [50] was > 100 µM and the TGI [51] was > 100 µM. The TGI [52] was > 100 µM, the TGI [53] was > 100 µM and the TGI [54] was > 100 µM. The TGI [55] was > 100 µM and the TGI [56] was > 100 µM.

For `O=[N+]([O-])c1ccc2sc(/C=N/c3ccccn3)cc2c1`, the TGI [1] was > 100 µM, the TGI [2] was > 100 µM and the TGI [3] was > 100 µM. The TGI [4] was > 100 µM, the TGI [5] was > 100 µM and the TGI [6] was > 100 µM. For the same compound, the TGI [7] was > 100 µM, the TGI [9] was > 100 µM and the TGI [10] was > 100 µM. The TGI [11] was > 100 µM, the TGI [12] was > 100 µM and the TGI [13] was > 100 µM. The TGI [57] was 88.9 µM, the TGI [14] was > 100 µM and the TGI [15] was > 100 µM. For the same compound, the TGI [16] was 53.5 µM, the TGI [17] was 94 µM and the TGI [18] was > 100 µM. The TGI [19] was > 100 µM, the TGI [20] was 89.4 µM and the TGI [21] was > 100 µM. For the same compound, the TGI [22] was > 100 µM, the TGI [23] was > 100 µM and the TGI [24] was > 100 µM. For the same compound, the TGI [25] was > 100 µM, the TGI [26] was > 100 µM and the TGI [27] was > 100 µM. The TGI [28] was > 100 µM, the TGI [29] was > 100 µM and the TGI [30] was > 100 µM. The TGI [31] was > 100 µM, the TGI [32] was > 100 µM and the TGI [33] was 74 µM. The TGI [34] was > 100 µM, the TGI [35] was > 100 µM and the TGI [36] was > 100 µM. For the same compound, the TGI [37] was > 100 µM, the TGI [38] was > 100 µM and the TGI [39] was > 100 µM. For the same compound, the TGI [40] was > 100 µM, the TGI [41] was > 100 µM and the TGI [42] was > 100 µM. For the same compound, the TGI [44] was > 100 µM, the TGI [45] was > 100 µM and the TGI [46] was > 100 µM. For the same compound, the TGI [47] was > 100 µM, the TGI [48] was > 100 µM and the TGI [49] was > 100 µM. The TGI [58] was > 100 µM, the TGI [50] was 96.6 µM and the TGI [51] was > 100 µM. The TGI [52] was > 100 µM, the TGI [59] was > 100 µM and the TGI [53] was > 100 µM. For the same compound, the TGI [54] was > 100 µM, the TGI [55] was > 100 µM and the TGI [56] was > 100 µM.
